In brackets after ≈: the same amount, converted by molar mass. Counter-ions that a name gives are not always drawn. Like-named read-outs stand apart in the source and are kept apart here.
Assays:
[1] = test system: Escherichia coli NIHJ JC-2; assay: Minimal inhibitory concentration, agar plate dilution method; format: cell-based; conditions: NIHJJC2
Protocol: (§1) The antibacterial activities of the compounds of the present invention against various bacteria (inoculum size : 10^6 cells/ml) were tested by the agar plate dilution method, and the results are shown in the following Table 1.

[2] = test system: Serratia marcescens IID 618; assay: as above; format: cell-based; conditions: IID618
Protocol: as §1

[3] = test system: Pseudomonas aeruginosa NCTC 10490; assay: as above; format: cell-based; conditions: NCTC10490
Protocol: as §1

[4] = test system: Enterobactor cloacae IFO 13525; assay: as above; format: cell-based
Protocol: as §1

[5] = test system: Klebsiella pneumoniae T 25; assay: as above; format: cell-based; conditions: T25
Protocol: as §1

[6] = Concentration of the compound in blood after oral administration to rats (bioassay); format: in vivo, Male wister rats; conditions: rat, 50 mg/kg
Protocol: Male wister rats (7 weeks old) were administered orally with the test compound, and the change of the concentration of the compound in blood was measured.
Dosage of the test compound: 50 mg/kg
Quantitative method: Bioassy
test bacterium: Escherichia coli SC507)

[7] = Escherichia coli NIHJ JC-2, inoculum size 10^6 cells/ml, read-out: MIC
[8] = Serratia marcescens IID 618, inoculum size 10^6 cells/ml, read-out: MIC
[9] = Pseudomonas aeruginosa NCTC 10490, inoculum size 10^6 cells/ml, read-out: MIC
[10] = Enterobactor cloacae IFO 13525, inoculum size 10^6 cells/ml, read-out: MIC
[11] = Klebsiella pneumoniae T 25, inoculum size 10^6 cells/ml, read-out: MIC

Structure (SMILES)	MIC [1, 7] [µg/mL]	MIC [2, 8] [µg/mL]	MIC [3, 9] [µg/mL]	MIC [4, 10] [µg/mL]	MIC [5, 11] [µg/mL]	concentration at 1 h [6] [ng/mL]	concentration at 2 h [6] [ng/mL]	concentration at 4 h [6] [ng/mL]	MIC ([1]; Escherichia coli) [µg/mL]	MIC ([2]; Serratia marcescens) [µg/mL]	MIC ([3]; Pseudomonas aeruginosa) [µg/mL]	MIC [4] [µg/mL]	MIC ([5]; Klebsiella pneumoniae) [µg/mL]
COC(=O)/C=C\SC1=C(C(=O)O)N2C(=O)[C@@H](NC(=O)/C(=N\OCC(=O)O)c3csc(N)n3)[C@H]2SC1 [A, 7β-{α-(2-aminothiazole-4-yl)-β-[(Z)-carboxymethoxyimino]acetamido)}-3[(Z)-2-methoxycarbonylvinylthio]-3-cephem-4-carboxylic acid sodium salt]	0.2	1.56	25	25	0.39	37800	38900	32500	–	–	–	–	–
CCOC(=O)/C=C\SC1=C(C(=O)O)N2C(=O)[C@@H](NC(=O)/C(=N\OCC(=O)O)c3csc(N)n3)[C@H]2SC1 [B]	0.2 (≈ 0.359 µM)	0.39 (≈ 0.699 µM)	3.13 (≈ 5.61 µM)	12.5 (≈ 22.4 µM)	0.39 (≈ 0.699 µM)	34000	37100	31000	–	–	–	–	–
CC(C)OC(=O)/C=C\SC1=C(C(=O)O)N2C(=O)[C@@H](NC(=O)/C(=N\OCC(=O)O)c3csc(N)n3)[C@H]2SC1 [C]	0.39 (≈ 0.682 µM)	0.39 (≈ 0.682 µM)	12.5 (≈ 21.9 µM)	6.25 (≈ 10.9 µM)	0.39 (≈ 0.682 µM)	–	–	–	–	–	–	–	–
C=CCOC(=O)/C=C\SC1=C(C(=O)[O-])N2C(=O)[C@@H](NC(=O)/C(=N\OCC(=O)[O-])c3csc(N)n3)[C@H]2SC1.[Na+].[Na+] [D, 7β-{α-(2-aminothiazole-4-yl)-α-[(Z)-carboxymethoxyimino]acetamido}-3-[(Z)-2-allyloxycarbonylvinylthio]-3-cephem-4-carboxylic acid sodium salt]	–	–	–	–	–	–	–	–	0.39	0.39	6.25	12.5	0.39
CC1=C(C(=O)O)N2C(=O)[C@@H](NC(=O)[C@H](N)c3ccccc3)[C@H]2SC1 [YY, Cefalexin, reference compound]	–	–	–	–	–	–	–	–	12.5 (≈ 36 µM)	> 100	> 100	> 100	100 (≈ 288 µM)

From patent publication US4699981A, “Cephalosporin derivatives” (Taisho Pharmaceutical Co., Ltd., priority 1985, dated 1987)
